One may read the IC50 as the concentration that gives 50% inhibition. For orientation: IC90 means the point of the concentration-response curve where the effect stands at 90%.

Results on 37 compounds are retold here after ChEMBL document CHEMBL4483862, “Open-source discovery of chemical leads for next-generation chemoprotective antimalarials” (2018).

This test relates to Plasmodium berghei. As to the kind of experiment: Luciferase/luciferin-expressing antifolate-resistant parasites were used to infect a culture of HepG2 cells that were pre-incubated with compounds. Infected hepatocytes emit light due to the luciferase reaction. Assay results are presented as the percent inhibition of light emission compared to control. […]. The test is classed as functional. Particulars: sporozoite; for IC90: read-out: LUCIFERASE INFECTION ASSAY - IC90.

Setting [1] is: read-out: LUCIFERASE INFECTION ASSAY - IC50.

SMILES strings stand for the structures.

For the compound `CCOC(=O)c1[nH]c2cc(OC)c(OC)cc2c1NC(=O)c1ccccc1OC`, the IC90 is more than 8.28 µM. Further, where the note is “PBLUC_HILL_SLOPE 12.7, PBLUC_R_SQUARED 0.193, read-out: LUCIFERASE INFECTION ASSAY - IC50”, the IC50 turned out to be 8.06 µM.
Take `CC(C)(C)c1ccc(CSc2nnc(-c3ccco3)n2-c2ccc(OCc3ccccc3)cc2)cc1`: the IC90 was more than 6.66 µM. The IC50 (FFLUC_HILL_SLOPE 93.6, FFLUC_R_SQUARED 0.0881, read-out: LUCIFERASE INFECTION ASSAY - IC50) was more than 6.66 µM.
With `CN(C)c1cccc(-c2cnc3cnc(-c4ccc(C(=O)NCCO)cc4)cn23)c1`, the 90% effect concentration (IC90) is more than 8.22 µM. Moreover, the IC50 under setting [1] is more than 8.22 µM.
With `CCC(Nc1nc(C(F)(F)F)nc2ccccc12)c1ccc(Br)cc1` (centres undefined), the IC90 was more than 10 µM. The half-maximal inhibitory concentration (IC50) (PBLUC_HILL_SLOPE 5.54, PBLUC_R_SQUARED 0.0475, read-out: LUCIFERASE INFECTION ASSAY - IC50) was more than 10 µM.
On to `CCc1ccc(-n2c(SC3CCCCC3NS(=O)(=O)c3ccccc3)nc3ccccc3c2=O)cc1` (centres undefined), for which the IC90 was found to be 4.14 µM. Also, the IC50 (PBLUC_HILL_SLOPE 16.5, PBLUC_R_SQUARED 0.215, read-out: LUCIFERASE INFECTION ASSAY - IC50) was found to be 3.63 µM.
On to `O=C(NC(=S)Nc1ccc(Oc2cc(C(F)(F)F)cc(C(F)(F)F)c2)cc1)c1ccccc1`, for which the IC90 stood at 4.3 µM. For the same compound, for the setting “PBLUC_HILL_SLOPE 1.93, PBLUC_R_SQUARED 0.641, read-out: LUCIFERASE INFECTION ASSAY - IC50”, the IC50 came out at 1.37 µM.
Consider `Cc1ccc(N2C(=O)N(CC(=O)N3CCc4ccccc43)C(=O)C2C)cc1` (centres undefined), for which the IC90 was more than 2 µM. Further, the IC50 under setting [1] was more than 2 µM.
Turning to `CC(C)CCNC(=O)NC(=O)CSc1nn(-c2ccc(F)cc2)c(=S)s1`, the concentration for an effect of 90% (IC90) was more than 10 µM. Moreover, the IC50 under setting [1] was more than 10 µM.
For `COc1cc(Nc2ccn3ncc(-c4ccc(N)cc4)c3n2)cc(OC)c1OC`, the IC90 stood at 3.83 µM. Further, the IC50 (HEPG2TOX_HILL_SLOPE 3.9, HEPG2TOX_R_SQUARED 0.655, PBLUC_HILL_SLOPE 12, PBLUC_R_SQUARED 0.445, read-out: LUCIFERASE INFECTION ASSAY - IC50) was 3.19 µM.
As to `COCC(C)n1c(C)cc(C(=O)CN2C(=O)c3ccccc3S2(=O)=O)c1C` (centres undefined), the IC90 is more than 10 µM. In addition, the IC50 (FFLUC_HILL_SLOPE 1.61, FFLUC_R_SQUARED 0.328, read-out: LUCIFERASE INFECTION ASSAY - IC50) is more than 10 µM.
For the compound `Cc1ccc(CN2C(=O)C(O)(c3c[nH]c4ccccc34)c3ccccc32)c(C)c1` (centres undefined), the IC90 came out at 6.05 µM. For the same compound, the IC50 (FFLUC_HILL_SLOPE 13.6, FFLUC_R_SQUARED 0.607, PBLUC_HILL_SLOPE 3.72, PBLUC_R_SQUARED 0.631, read-out: LUCIFERASE INFECTION ASSAY - IC50) is 3.35 µM.
In the case of `Cc1nc(=O)c2c(C)c(C(=O)OCC(=O)/C=C3\N(C)c4ccccc4C3(C)C)sc2[nH]1`, the IC90 was more than 10 µM. Besides, for the setting “HEPG2TOX_HILL_SLOPE 0.0151, HEPG2TOX_R_SQUARED 0.0709, PBLUC_HILL_SLOPE 3.19, PBLUC_R_SQUARED 0.563, read-out: LUCIFERASE INFECTION ASSAY - IC50”, the IC50 worked out at 6.65 µM.
Take `Cc1ccc2nc(NC(=O)c3ccccc3C(F)(F)F)c(C(=O)NCC(C)C)n2c1`: the IC90 was found to be 7.86 µM. Besides, the IC50 (HEPG2TOX_HILL_SLOPE 8.05, HEPG2TOX_R_SQUARED 0.91, PBLUC_HILL_SLOPE 18.7, PBLUC_R_SQUARED 0.209, read-out: LUCIFERASE INFECTION ASSAY - IC50) came to 6.99 µM.
Take `CC(OC(=O)C1CCN(C(=O)c2ccc(Cl)cc2)CC1)C(=O)Nc1ccc([N+](=O)[O-])cc1C(F)(F)F` (centres undefined): the IC90 was more than 10 µM. The IC50 under setting [1] is more than 10 µM.
As for `COc1cccc(/C=C/C(=O)Nc2nc3c(s2)CN(C(=O)OC(C)(C)C)CC3)c1`, the IC90 came out at 0.475 µM. Further, the IC50 under setting [1] was determined as 0.387 µM.
With `O=C(CSc1nc2sc3c(c2c(=O)n1-c1cccc(C(F)(F)F)c1)CCCC3)NC12CC3CC(CC(C3)C1)C2`, the IC90 worked out at 7.89 µM. Moreover, under “PBLUC_HILL_SLOPE 5.84, PBLUC_R_SQUARED 0.777, read-out: LUCIFERASE INFECTION ASSAY - IC50”, the IC50 came to 5.41 µM.
For `CCCn1nc(C(=O)NCC(c2ccc(OC)cc2)N2CCOCC2)c2ccccc2c1=O` (centres undefined), the IC90 was more than 10 µM. The IC50 (HEPG2TOX_HILL_SLOPE 1.06, HEPG2TOX_R_SQUARED 0.0699, read-out: LUCIFERASE INFECTION ASSAY - IC50) was more than 10 µM.
With `CCC(C)c1ccc(-n2c(SCC(=O)N3c4ccccc4CC3C)nc3ccccc3c2=O)cc1` (centres undefined), the IC90 was 9.46 µM. Moreover, the IC50 (FFLUC_HILL_SLOPE 26.9, FFLUC_R_SQUARED 0.3, PBLUC_HILL_SLOPE 22.4, PBLUC_R_SQUARED 0.296, read-out: LUCIFERASE INFECTION ASSAY - IC50) amounted to 8.58 µM.
As for `CC(C(=O)Nc1cccnc1)c1ccc2c(c1)[nH]c1ccc(Cl)cc12` (centres undefined), the IC90 was more than 9.43 µM. For the setting “HEPG2TOX_HILL_SLOPE 3.6, HEPG2TOX_R_SQUARED 0.842, PBLUC_HILL_SLOPE 14.2, PBLUC_R_SQUARED 0.432, read-out: LUCIFERASE INFECTION ASSAY - IC50”, the IC50 turned out to be 8.79 µM.
`Cc1nc(-c2ccc(F)cc2)sc1C(=O)N1CCc2sccc2C1`: the IC90 is more than 10 µM. Further, the IC50 under setting [1] was more than 10 µM.
In the case of `O=C(O)c1ccc(CN2C(=O)CCC2=O)cc1`, the IC90 is more than 10 µM. For the same compound, the IC50 under setting [1] was more than 10 µM.
`Cc1ccc(-c2cc(C(=O)NNC(=O)c3nn(C)c(=O)c4ccccc34)[nH]n2)cc1`: the IC90 is more than 10 µM. In addition, under setting [1], the IC50 was more than 10 µM.
For `COCCNC(=O)CN(C)S(=O)(=O)c1ccc2c(c1)CCC(=O)N2`, the concentration for an effect of 90% (IC90) is more than 10 µM. Also, under setting [1], the IC50 is more than 10 µM.
As for `Cc1cc(C)c(C)c(S(=O)(=O)N2CCC(C(=O)Nc3nnc(-c4ccccc4)o3)CC2)c1C`, the IC90 is more than 10 µM. Also, the IC50 (HEPG2TOX_HILL_SLOPE 7.53, HEPG2TOX_R_SQUARED 0.782, PBLUC_HILL_SLOPE 3.42, PBLUC_R_SQUARED 0.39, read-out: LUCIFERASE INFECTION ASSAY - IC50) is 6.89 µM.
Regarding `CC1CCN(Cc2ccc(CNC(=O)CCn3cncn3)cc2)CC1`, the IC90 is more than 10 µM. Further, the IC50 under setting [1] was more than 10 µM.
As to `CCOC(=O)c1c(NC(=O)Cn2c(=O)c(C#N)c3n(c2=O)CCC3)sc(C)c1CC`, the IC90 was more than 10 µM. Moreover, the IC50 (PBLUC_HILL_SLOPE 0.645, PBLUC_R_SQUARED 0.0864, read-out: LUCIFERASE INFECTION ASSAY - IC50) was more than 10 µM.
For the compound `CCn1c2ccccc2c2cc(CN(C)C(=O)Cn3nnc4ccccc43)ccc21`, the IC90 came to 2.08 µM. Further, for the setting “HEPG2TOX_HILL_SLOPE 27.9, HEPG2TOX_R_SQUARED 0.506, PBLUC_HILL_SLOPE 3.75, PBLUC_R_SQUARED 0.455, read-out: LUCIFERASE INFECTION ASSAY - IC50”, the IC50 is 1.16 µM.
With `CC(=O)Nc1ccc(-c2cnc3ccc(-c4cccc(Oc5ccccc5)c4)nn23)cc1`, the IC90 stood at 3.35 µM. In addition, for the setting “HEPG2TOX_HILL_SLOPE 2.48, HEPG2TOX_R_SQUARED 0.914, PBLUC_HILL_SLOPE 2.88, PBLUC_R_SQUARED 0.663, read-out: LUCIFERASE INFECTION ASSAY - IC50”, the IC50 was found to be 1.56 µM.
For `Cc1cccc(OCCNC(=O)c2cc(S(=O)(=O)N3CCOCC3)ccc2N2CCOCC2)c1`, the IC90 is more than 10 µM. Moreover, where the note is “HEPG2TOX_HILL_SLOPE 6.77, HEPG2TOX_R_SQUARED 0.742, read-out: LUCIFERASE INFECTION ASSAY - IC50”, the IC50 is more than 10 µM.
For `CC1(C(=O)Nc2cnc3ccccc3c2)CCN1Cc1ccccc1Cl` (centres undefined), the IC90 is more than 9.02 µM. Also, the IC50 (HEPG2TOX_HILL_SLOPE 0.189, HEPG2TOX_R_SQUARED 0.318, read-out: LUCIFERASE INFECTION ASSAY - IC50) is more than 9.02 µM.
As to `CCC1=C(C(=O)OC)C(c2c(F)cccc2F)NC(=S)N1c1ccc2c(c1)OCCO2` (centres undefined), the IC90 was more than 10 µM. For the same compound, the 50% inhibitory concentration (IC50) (PBLUC_HILL_SLOPE 2.5, PBLUC_R_SQUARED 0.683, read-out: LUCIFERASE INFECTION ASSAY - IC50) was 6.87 µM.
For the compound `CCOC(=O)c1ccc(N2CCCCC2)c(NC(=O)c2sc3ccccc3c2Cl)c1`, the IC90 is more than 7.45 µM. The IC50 (FFLUC_HILL_SLOPE 35, FFLUC_R_SQUARED 0.23, read-out: LUCIFERASE INFECTION ASSAY - IC50) is more than 7.45 µM.
For the compound `Cc1ccc(OCC(=O)Nc2cc(NC(=O)c3ccco3)ccc2C)c(C)c1`, the IC90 is 8.08 µM. In addition, the IC50 (PBLUC_HILL_SLOPE 1.36, PBLUC_R_SQUARED 0.771, read-out: LUCIFERASE INFECTION ASSAY - IC50) is 1.61 µM.
Take `CCOc1ccc(/C=C/c2ccc3c(Cl)cc(Cl)c(O)c3n2)cc1OC`: the IC90 was more than 10 µM. For the same compound, the IC50 (HEPG2TOX_HILL_SLOPE 1.14, HEPG2TOX_R_SQUARED 0.782, PBLUC_HILL_SLOPE 2.47, PBLUC_R_SQUARED 0.699, read-out: LUCIFERASE INFECTION ASSAY - IC50) was found to be 4.52 µM.
Turning to `CC(C)(C)c1ccc(COc2cccnc2N=CNO)cc1`, the IC90 is more than 11 µM. Moreover, the IC50 (PBLUC_HILL_SLOPE 1.74, PBLUC_R_SQUARED 0.362, read-out: LUCIFERASE INFECTION ASSAY - IC50) was 6.6 µM.
For `CC12C/C(=C\c3ccccc3)C(O)CC1CCC1C2CCC2(C)C1CC[C@]2(C)O` (some centres undefined), the IC90 is more than 8.36 µM. Also, the IC50 (FFLUC_HILL_SLOPE 0.541, FFLUC_R_SQUARED 0.353, PBLUC_HILL_SLOPE 12.3, PBLUC_R_SQUARED 0.0329, read-out: LUCIFERASE INFECTION ASSAY - IC50) is more than 8.36 µM.
`Cc1c(NC(=O)c2cccc(Nc3nc(-c4cccs4)nc4ccccc34)c2)c(=O)n(-c2ccccc2)n1C`: the IC90 is more than 10 µM. Further, the IC50 under setting [1] came to 9.1 µM.
